# Experimental data reported in patent US12263248B2, “Compounds and compositions for intracellular delivery of therapeutic agents” (ModernaTX, Inc., priority 2018, dated 2025).
# What was measured:
# IP-10 = experiment: Cytokine induction in rats after intravenous administration; type: in vivo, rat; settings: rat, 48 hours after administration
# Description: The expression of hEPO and cytokine induction in rats intravenously administered a nanoparticle composition at a dose of 2.0 mpk was measured at 6 h.
# Table 19A summarizes the hEPO expression, IP-10 induction, liver and spleen levels, and alanine aminotransferase (ALT) and aspartate aminotransferase (AST) measured upon intravenous administration of formulations including Compounds 48, 49, and 50 to rat at 0.2 and 2 mpk and hEPO mRNA. hEPO concentrations were measured 6 hours after administration, while cytokine induction and liver and spleen levels were measured 48 hours after administration. hEPO and IP-10 concentrations are presented in pg/ml, while liver levels are provided in ng/g. ALT and AST levels are presented in international units.
# hEPO mRNA [1] = experiment: hEPO expression after intravenous administration to rats; type: in vivo, rat; settings: for hEPO expression: rat; for hEPO expression / Lipid/MC3 hEPO conc. ratio 0.2 mpk / Lipid/MC3 hEPO conc. ratio 2 mpk: intravenous, 6 hours; for Lipid/MC3 hEPO conc. ratio 0.2 mpk / Lipid/MC3 hEPO conc. ratio 2 mpk: rats
# In short: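 Rats dosed intravenously once with nanoparticle composition, 0.2 or 2.0 mpk, formulated by the standard MC3 method. Tail-vein blood sampled at 6 h or at time points from 0.25 to 48 h. hEPO measured by ELISA.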
# hEPO mRNA [2] = experiment: hEPO expression after subcutaneous administration to mice; type: in vivo, female CD-1 mice; settings: relative to MC3
# Description: The effect of the lipids of the disclosure on protein expression upon subcutaneous administration was studied. Formulations containing lipids of the disclosure and an mRNA expressing luciferase or hEPO were administered subcutaneously to female CD-1 mice at 0.5 mpk. Expression levels were obtained via whole body luminescent imaging (BLI) at 3, 6 and 24 hours after injection and expression levels in liver, spleen and at the injection site were evaluated ex vivo after 24 hours. […] See also Tables 35 and 36, and FIGS. 19 and 27.
# Table 36 summarizes the hEPO expression levels using various nanoparticle compositions of the disclosure as compared to the hEPO expression level using a formulation containing MC3 or Compound 18, following subcutaneous administration, as described above.
# [3] = Residual lipid levels in rat liver and spleen (UPLC-MS); type: in vivo; settings: for % Lipid Remaining in liver, 48 h: rats, 2 mpk, assuming 300 g rat and 15 g liver
# In short: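 Rats received a single intravenous dose of lipid nanoparticle composition, and liver tissue was later collected to quantify residual lipid. Weighed tissue was homogenized in Milli-Q water (900 μL per 100 mg tissue) using an Omni probe homogenizer. 50 μL aliquots were mixed with 400 μL spiking solution, vortexed, centrifuged, and analyzed by UPLC on a C8 column with positive-mode ESI detection on a Sciex API5500 mass spectrometer.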
# sC5b-9 = experiment: Complement activation in vitro (sC5b-9 levels); type: cell-based; settings: human cells contacted in vitro
# Description: Complement activation assists in the clearance of pathogens from an organism. As it is undesirable that a subject's body recognize a nanoparticle composition as a foreign invader, low complement system activation upon administration of such a composition is preferred. The complex sC5b-9 is a marker for the activation of the complement system. Thus, human cells were contacted in vitro with nanoparticle compositions according to Table 1A and were evaluated for sC5b-9 levels.
smiles,measurement,setting,value
"CCCCCCCCC(CC)OC(=O)CCCCCCCN(CCO)CCCCCCCC(=O)OC(CCCCCCCC)CCCCCCCC (stereo not shown) [Compound 49, heptadecan-9-yl 8-((2-hydroxyethyl)(8-oxo-8-(undecan-3-yloxy)octyl)amino)octanoate]",IP-10 induction,IP-10; 0.2 mpk,66 pg/mL
same,IP-10 induction,IP-10; 2 mpk,932 pg/mL
same,hEPO expression,hEPO mRNA [1]; 0.2 mpk,3.17e+06 pg/mL
same,hEPO expression,hEPO mRNA [1]; 2 mpk,3.04e+07 pg/mL
same,Lipid/MC3 hEPO conc. ratio 0.2 mpk,hEPO mRNA [1]; 0.2 mpk,4.13
same,Lipid/MC3 hEPO conc. ratio 2 mpk,hEPO mRNA [1]; 2 mpk,3.28
same,"Novel lipid/MC3 expression ratio, 6 hr. time point, s.c. hEPO 0.5 mpk",hEPO mRNA [2],8.01
same,"% Lipid Remaining in liver, 48 h",[3],12.6%
"CCCCCCCCC(CCC)OC(=O)CCCCCCCN(CCO)CCCCCCCC(=O)OC(CCCCCCCC)CCCCCCCC (stereo not shown) [Compound 50, dodecan-4-yl 8-((8-(heptadecan-9-yloxy)-8-oxooctyl)(2-hydroxyethyl)amino)octanoate]",IP-10 induction,IP-10; 0.2 mpk,20 pg/mL
same,IP-10 induction,IP-10; 2 mpk,1065 pg/mL
same,hEPO expression,hEPO mRNA [1]; 0.2 mpk,2.62e+06 pg/mL
same,hEPO expression,hEPO mRNA [1]; 2 mpk,2.81e+07 pg/mL
same,Lipid/MC3 hEPO conc. ratio 0.2 mpk,hEPO mRNA [1]; 0.2 mpk,3.41
same,Lipid/MC3 hEPO conc. ratio 2 mpk,hEPO mRNA [1]; 2 mpk,3.03
same,"% Lipid Remaining in liver, 48 h",[3],15.9%
"CCCC/C=C\CCC(CC/C=C\CCCC)OC(=O)CCCCCCCN(CCO)CCCCCCCC(=O)OCCCCCCCCC [Compound 60, (5Z,12Z)-Heptadeca-5,12-dien-9-yl 8-((2-hydroxyethyl)(8-(nonyloxy)-8-oxooctyl)amino)octanoate]","Novel lipid/MC3 expression ratio, 6 hr. time point, s.c. hEPO 0.5 mpk",hEPO mRNA [2],6.59
"CCCCCCCCCOC(=O)CCCCCCCN(CCCCCCCC(=O)OC(CCCCCCCC)CCCCCCCC)CCCNS(C)(=O)=O [Compound 109, Heptadecan-9-yl 8-((3-(methylsulfonamido)propyl)(8-(nonyloxy)-8-oxooctyl)amino)octanoate]","Novel lipid/MC3 expression ratio, 6 hr. time point, s.c. hEPO 0.5 mpk",hEPO mRNA [2],6.78
"CCCCCCCCCOC(=O)CCCCCCCN(CCCCCCCC(=O)OC(CCCCCCCC)CCCCCCCC)CCCNC(=S)N(C)C [Compound 111, Heptadecan-9-yl 8-((3-(3,3-dimethylthioureido)propyl)(8-(nonyloxy)-8-oxooctyl)amino)octanoate]","Novel lipid/MC3 expression ratio, 6 hr. time point, s.c. hEPO 0.5 mpk",hEPO mRNA [2],6.40
"CCCCC/C=C\C/C=C\CCCCCCCCN(CCO)CCCCCCCC(=O)OCCCCCCCCC [Compound 136, Nonyl 8-((2-hydroxyethyl)((9Z,12Z)-octadeca-9,12-dien-1-yl)amino)octanoate]",Fold increase in sC5b-9 levels versus saline,sC5b-9,0.69
"CCCCCCCC/C=C\COC(=O)CCCCCN(CCO)CCCCCC(=O)OC/C=C\CCCCCCCC [Compound 140, Di((Z)-undec-2-en-1-yl) 6,6′-((2-hydroxyethyl)azanediyl)dihexanoate]",Fold increase in sC5b-9 levels versus saline,sC5b-9,0.75
"CCCCCCCCCOC(=O)CCCCCCCN(CCO)CCCCCCCCCC(=O)OC(CCCCCC)CCCCCC [Compound 147, Tridecan-7-yl 10-((2-hydroxyethyl)(8-(nonyloxy)-8-oxooctyl)amino)decanoate]",AUC (hEPO),hEPO mRNA [1]; Table 19B,7.28e+07 pg·h/mL
same,Lipid/MC3 ([hEPO] ratio),"hEPO mRNA [1]; Table 19B, relative to MC3",3.69
same,Lipid/MC3 AUC,"hEPO mRNA [1]; Table 19B, relative to MC3",3.94
same,[hEPO],"hEPO mRNA [1]; Table 19B, species, dose and time not given",5.45e+06 pg/mL
same,"% dose remaining, liver, 24 h","[3]; Table 19B, liver, 24 h",0.00%
